Assay results: PMC6934184, “Selective DNA-PKcs inhibition extends the therapeutic index of localized radiotherapy and chemotherapy” (The Journal of Clinical Investigation, 2019)

Biological target: T1, MAPK15 (ERK7) (Homo sapiens, UniProt Q8TD08)
T1 construct: purchased Thermo Fisher Scientific (Life Technologies) SelectScreen
Test: SelectScreen LanthaScreen
Assay type: binding
Conditions: read-out: % displacement
Summary of the method: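 Percent values come from Thermo SelectScreen profiling of NU5455, combining activity and binding assays. CSF1R was run in Z'LYTE format at Km app ATP, and CAMK1 in Adapta format with ATP listed at 10.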

T1 sequence (Q8TD08 whole entry): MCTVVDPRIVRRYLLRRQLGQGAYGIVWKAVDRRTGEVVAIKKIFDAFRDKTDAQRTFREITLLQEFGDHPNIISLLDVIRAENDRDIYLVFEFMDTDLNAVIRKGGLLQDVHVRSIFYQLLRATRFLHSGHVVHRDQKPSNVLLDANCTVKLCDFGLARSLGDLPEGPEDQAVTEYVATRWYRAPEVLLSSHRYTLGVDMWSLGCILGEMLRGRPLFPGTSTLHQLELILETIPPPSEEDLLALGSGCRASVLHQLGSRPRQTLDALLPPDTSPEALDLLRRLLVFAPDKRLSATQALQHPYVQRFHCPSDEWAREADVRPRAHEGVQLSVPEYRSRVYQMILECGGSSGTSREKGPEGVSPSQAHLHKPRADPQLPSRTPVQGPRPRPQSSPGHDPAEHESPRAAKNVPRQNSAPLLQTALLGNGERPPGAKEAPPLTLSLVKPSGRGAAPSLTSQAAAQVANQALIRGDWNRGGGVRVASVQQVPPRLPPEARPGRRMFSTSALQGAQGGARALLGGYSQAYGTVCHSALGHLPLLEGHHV

## CN(C(=O)CN1CCOCC1)c1ccc2sc3c(-c4cccc5c(=O)cc(N6CC7CCC(C6)O7)oc45)cccc3c2c1 [NU5455]
  inhibition at 1 µM: 3.6%
